Values quoted from earlier work in patent US20250255875A1, “BIFUNCTIONAL CHIMERIC MOLECULES FOR LABELING OF KINASES WITH TARGET BINDING MOIETIES AND METHODS OF USE THEREOF” (The Brigham and Women's Hospital, Inc., priority 2022, published 2025).

Experiments:
[1] = test system: NF-…B Pathway
[2] = target: T1, Recombinant PK… (PKCζ) (Homo sapiens, UniProt Q05513)
T1 sequence (Q05513 1-592): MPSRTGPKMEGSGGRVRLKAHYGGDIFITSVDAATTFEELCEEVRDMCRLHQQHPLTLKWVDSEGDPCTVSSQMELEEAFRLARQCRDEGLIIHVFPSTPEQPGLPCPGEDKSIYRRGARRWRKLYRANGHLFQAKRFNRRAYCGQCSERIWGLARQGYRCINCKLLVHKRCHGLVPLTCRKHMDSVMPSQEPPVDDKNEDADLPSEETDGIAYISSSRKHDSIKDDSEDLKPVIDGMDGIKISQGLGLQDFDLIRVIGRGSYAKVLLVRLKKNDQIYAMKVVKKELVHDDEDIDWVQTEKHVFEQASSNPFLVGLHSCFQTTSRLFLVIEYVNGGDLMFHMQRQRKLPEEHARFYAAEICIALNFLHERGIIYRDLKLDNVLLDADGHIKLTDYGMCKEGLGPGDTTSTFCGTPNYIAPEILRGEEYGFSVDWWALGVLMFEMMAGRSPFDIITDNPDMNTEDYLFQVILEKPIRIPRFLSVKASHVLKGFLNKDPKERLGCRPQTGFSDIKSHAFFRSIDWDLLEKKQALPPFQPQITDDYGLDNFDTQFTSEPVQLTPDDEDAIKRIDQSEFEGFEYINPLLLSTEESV

[3] = target: p38α MAPK (Homo sapiens, UniProt Q16539)
p38α MAPK, sequence (Q16539 whole entry): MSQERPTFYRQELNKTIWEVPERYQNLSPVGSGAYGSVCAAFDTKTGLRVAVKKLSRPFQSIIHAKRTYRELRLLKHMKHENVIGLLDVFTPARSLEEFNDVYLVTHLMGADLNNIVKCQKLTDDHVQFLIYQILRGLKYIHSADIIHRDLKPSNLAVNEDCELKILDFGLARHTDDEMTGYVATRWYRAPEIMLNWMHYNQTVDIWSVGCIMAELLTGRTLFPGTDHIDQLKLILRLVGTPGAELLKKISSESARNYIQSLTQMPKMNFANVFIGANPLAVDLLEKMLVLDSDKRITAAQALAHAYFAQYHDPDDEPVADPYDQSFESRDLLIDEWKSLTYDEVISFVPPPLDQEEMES

[4] = test system: Lyn kinase; details: knockout mice
[5] = target: c-Met (Homo sapiens, UniProt P08581)
c-Met, sequence (P08581 25-1390): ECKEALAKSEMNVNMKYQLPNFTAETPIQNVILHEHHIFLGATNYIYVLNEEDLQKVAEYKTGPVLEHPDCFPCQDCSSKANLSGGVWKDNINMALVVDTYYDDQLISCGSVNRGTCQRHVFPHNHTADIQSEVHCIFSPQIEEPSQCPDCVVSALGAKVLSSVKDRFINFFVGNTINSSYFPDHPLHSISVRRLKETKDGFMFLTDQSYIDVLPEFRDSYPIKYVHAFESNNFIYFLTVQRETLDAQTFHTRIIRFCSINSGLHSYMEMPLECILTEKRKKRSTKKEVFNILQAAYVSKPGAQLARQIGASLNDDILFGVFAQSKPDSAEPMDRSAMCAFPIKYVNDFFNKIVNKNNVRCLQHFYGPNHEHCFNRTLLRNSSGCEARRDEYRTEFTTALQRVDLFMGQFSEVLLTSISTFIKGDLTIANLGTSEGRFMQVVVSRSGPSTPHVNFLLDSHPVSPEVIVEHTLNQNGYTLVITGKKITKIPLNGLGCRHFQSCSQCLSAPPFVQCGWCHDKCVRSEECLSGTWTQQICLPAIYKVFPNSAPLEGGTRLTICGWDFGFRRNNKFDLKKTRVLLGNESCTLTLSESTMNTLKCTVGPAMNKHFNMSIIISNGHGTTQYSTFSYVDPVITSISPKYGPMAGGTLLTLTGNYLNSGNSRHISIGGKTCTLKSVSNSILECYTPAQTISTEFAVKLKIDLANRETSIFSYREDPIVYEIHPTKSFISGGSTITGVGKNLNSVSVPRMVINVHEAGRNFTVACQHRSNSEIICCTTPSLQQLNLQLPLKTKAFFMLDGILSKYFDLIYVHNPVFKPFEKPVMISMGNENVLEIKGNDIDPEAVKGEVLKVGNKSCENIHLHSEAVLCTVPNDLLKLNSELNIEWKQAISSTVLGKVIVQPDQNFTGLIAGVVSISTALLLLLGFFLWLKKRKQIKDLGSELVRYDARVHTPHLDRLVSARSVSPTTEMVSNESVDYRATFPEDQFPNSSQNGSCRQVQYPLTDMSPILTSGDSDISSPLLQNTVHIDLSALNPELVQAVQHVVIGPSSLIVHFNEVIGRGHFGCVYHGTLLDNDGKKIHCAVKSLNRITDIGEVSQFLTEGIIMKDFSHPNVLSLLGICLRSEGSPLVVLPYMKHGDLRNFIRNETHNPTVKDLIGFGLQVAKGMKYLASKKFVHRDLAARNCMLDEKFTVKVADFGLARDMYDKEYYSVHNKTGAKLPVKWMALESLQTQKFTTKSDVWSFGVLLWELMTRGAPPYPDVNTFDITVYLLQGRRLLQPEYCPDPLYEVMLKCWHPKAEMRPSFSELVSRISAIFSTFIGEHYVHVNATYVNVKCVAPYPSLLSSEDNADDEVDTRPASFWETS

[6] = test system: breast, prostate, colon and pancreatic carcinoma xenografts; details: in vivo
[7] = test system: MERS-COV; details: in vitro
[8] = test system: NF-kB; details: mice
[9] = not given; remark: listed apart in the source
[10] = test system: mutant EGFR; details: 0.01-10 uM

SMILES | reporter gene assay % inhibu at 5 μM [1] | cell-free assay % inhibu at 62.5 μM [2] | also measured
O=C(NOCC(O)CO)c1ccc(F)c(F)c1Nc1ccc(I)cc1F (stereo not drawn) [Compound 35] |  |  | Sol (pH 6.5): 255, μg/mL
Cc1ccc(N2N=C(C(C)(C)C)CC2c2ccc(O)cc2)cc1 (stereo not drawn) [1e] | 62.9% |  | 
Cc1cccc(N2N=C(C(C)(C)C)CC2c2ccc(O)cc2)c1 (stereo not drawn) [1k] | 73.7% | 91.7% | 
CC(C)(C)C1=NN(c2ccc(Cl)cc2)C(c2ccc(O)cc2)C1 (stereo not drawn) [1a] | 75.1% |  | 
O=C1c2ccc(Nc3ccc(F)cc3F)cc2CCc2ccc(OC[C@H](O)CO)cc21 [Skepinone-B] |  |  | residence time [3]: 150 s
Cc1cccc(Oc2cnc(=O)[nH]c2)c1 [Tolimidone, tolimidone] |  |  | glucose lowering when Lyn kinase was absent [4]: did not lower glucose
O=C1NC(=O)[C@@H](c2cn3c4c(cccc24)CCC3)[C@@H]1c1c[nH]c2ccccc12 [Tivantinib, tivantinib] |  |  | selectivity for c-Met over other kinases tested [5]: 10-100 time; growth of carcinoma xenografts [6]: inhibition of growth
CO[C@H]1C[C@@H]2CC[C@@H](C)[C@@](O)(O2)C(=O)C(=O)N2CCCC[C@H]2C(=O)O[C@H]([C@H](C)C[C@@H]2CC[C@@H](O)[C@H](OC)C2)CC(=O)[C@H](C)/C=C(\C)[C@@H](O)[C@@H](OC)C(=O)[C@H](C)C[C@H](C)/C=C/C=C/C=C/1C [Sirolimus] |  |  | MERS-COV infection of Huh7 cells [7]: inhibits MERS-COV infection
Cc1ccc2nc(NCCN)c3ncc(C)n3c2c1.Cl [BMS-345541] |  |  | activity against LPS-induced NF-kB activation [8]: active
CC(=O)Nc1cccc(-n2c(=O)n(C3CC3)c(=O)c3c(Nc4ccc(I)cc4F)n(C)c(=O)c(C)c32)c1 [Trametinib] |  |  | Absorption/distribution of an oral dose of tablet [9]: 72%
O=C(Nc1nccs1)C(c1cc(F)ccc1O)N1Cc2ccc(-c3ccc(N4CCNCC4)cc3)cc2C1=O (stereo not drawn) [JBJ-04-125-02] |  |  | EGFR phosphorylation [10]: inhibited EGFR phosphorylation
CC(C)(C)C1=NN(c2ccc(F)cc2)C(c2ccc(O)cc2)C1 (stereo not drawn) [1b] | 63.8% | 95.5% | 
CC(C)(C)C1=NN(c2cccc(C(F)(F)F)c2)C(c2ccc(O)cc2)C1 (stereo not drawn) [1j] | 89.7% | 96.1% | 
CC(C)(C)C1=NN(c2cccc(Cl)c2)C(c2ccc(O)cc2)C1 (stereo not drawn) [1h] | 64.6% | 96.8% | 
CC(C)(C)C1=NN(c2ccc(Br)cc2)C(c2ccc(O)cc2)C1 (stereo not drawn) [1c] | 58.4% | 93.2% | 
